Results from patent publication US20210401863A1, “TREATMENT AND PREVENTION OF NEISSERIA GONORRHOEAE INFECTION USING CMP-ACTIVATED NONULOSONATE ANALOG COMPOUNDS” (NATIONAL RESEARCH COUNCIL OF CANADA, priority 2015, published 2021).
Like-named read-outs stand apart in the source and are kept apart here.

Legend:
N. gonorrhoeae F62 ΔlgtD [1] = format: cell-based, Neisseria gonorrhoeae; details: for % survival in 3.3% serum / % survival in 10% serum: Table 5
Procedure: Generally, bacteria (F62 ΔlgtD) grown overnight on chocolate agar plates were suspended in gonococcal liquid media supplemented with IsoVitaleX [29] that contained specified concentrations of the CMP-nonulosonate. Bacteria were then incubated at 37° C. for the period specified in each experiment.
Serum bactericidal assays were performed as follows, similar to methods outlined in [32,33] and in U.S. Pat. No. 9,765,106. Bacteria were harvested from an overnight culture on chocolate agar plates and ˜10^5 CFU of Ng were grown in liquid media containing the concentrations of CMP-NuIO as specified for each experiment. Bacteria were diluted in Morse A and ˜2000 CFU of Ng F62 ΔlgtD were incubated with NHS (concentration specified for each experiment). The final reaction volumes were maintained at 150 μL. Aliquots of 25 μL of reaction mixtures were plated onto chocolate agar in duplicate at the beginning of the assay (t0) and again after incubation at 37° C. for 30 minutes (t30). Survival was calculated as the number of viable colonies at t30 relative to t0.
Addition of a terminal Neu5Ac residue to the LNnT LOS of N. gonorrhoeae that occurs in vivo or following the addition of CMP-Neu5Ac to growth media results in resistance to complement-dependent killing. We next determined the effects of LNnT incorporation of KDN on the ability of N. gonorrhoeae F62 ΔlgtD to resist complement-dependent killing by normal human sera at concentrations of 3.3% or 10%. Bacteria were grown either in media alone, or media supplemented with 20 μg/mL of CMP-Neu5Ac or CMP-KDN. In addition, CMP-NulO competition experiments were also performed with CMP-Neu5Ac, CMP-Leg5Ac7Ac and CMP-KDN at CMP-NulO concentrations of either 20 μg/mL or 2 μg/mL as indicated, where the second CMP-NulO was added 15 minutes after the first (Table 1 below). To note, these CMP-NulO competition experiments are a method to examine the ability of select CMP-NulOs to counter the enhanced serum resistance due to CMP-Neu5Ac addition, providing information on their therapeutic potential (as any potential therapeutic will be required to compete with CMP-Neu5Ac in vivo).

[2] = target: T1, gonococcal LOS sialyltransferase (Lst) (Neisseria gonorrhoeae, UniProt P72074); assay: mAb 3F11 binding by flow cytometry (incorporation of NulO on LNnT LOS by Lst); format: cell-based, N. gonorrhoeae F62 ΔlgtD; details: F62 ΔlgtD grown in media with 20 μg/mL CMP-NulO
T1 construct: CMP-KDN served as a substrate for gonococcal Lst in the context of live bacteria; endogenous in cells; host or cells: N. gonorrhoeae F62 ΔlgtD (live bacteria)
T1 sequence (P72074 whole entry): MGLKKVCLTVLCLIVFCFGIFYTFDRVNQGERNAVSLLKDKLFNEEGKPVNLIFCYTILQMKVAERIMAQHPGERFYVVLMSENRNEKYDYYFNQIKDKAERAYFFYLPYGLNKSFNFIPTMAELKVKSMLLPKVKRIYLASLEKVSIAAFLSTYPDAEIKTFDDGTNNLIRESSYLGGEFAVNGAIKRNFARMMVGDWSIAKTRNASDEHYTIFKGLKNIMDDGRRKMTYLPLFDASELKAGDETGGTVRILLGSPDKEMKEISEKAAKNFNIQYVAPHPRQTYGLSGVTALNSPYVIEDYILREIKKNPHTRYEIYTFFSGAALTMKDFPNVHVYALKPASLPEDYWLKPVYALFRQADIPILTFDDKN
Procedure: FIG. 1: CMP-KDN serves as a substrate for gonococcal LOS and incorporation of KDN on gonococcal lacto-N-neotetraose LOS enhances factor H (FH) binding. A. Incorporation of KDN by gonococci. Gonococcal strain F62 ΔlgtD (expresses lacto-N-neotetraose (LNnT) from Hepl) was grown in media containing CMP-KDN (20 μg/mL) and binding of mAb 3F11 was measured by flow cytometry. mAb 3F11 binds only to […] LNnT; substitution of the terminal Gal of LNnT, for example with a NulO, will decrease mAb 3F11 binding. Approximately 5×10^7 bacteria were incubated with mAb 3F11 tissue culture supernatants for 15 minutes at 37° C. Binding of mAb 3F11 was disclosed with anti-mouse IgM FITC (Sigma; dilution of 1:100). Bacteria grown in CMP-Neu5Ac or in media alone were used as positive and negative controls for sialylation, respectively. A representative histogram is shown in the upper panel. […] B. Factor H (FH) binding to gonococci grown in CMP-KDN. Approximately 5×10^7 bacteria grown in media alone (no sialic acid), media plus CMP-Neu5Ac (20 μg/mL; positive control for FH binding) or in media containing CMP-KDN (20 μg/mL) were incubated with purified human FH (20 μg/mL) in HBSS** for 15 minutes at 37° C. and bound FH was detected with affinity isolated goat anti-human FH followed by anti-goat IgG FITC (Sigma; 1:100 dilution). A representative histogram is shown in the upper panel.
FIG. 3: CMP-KDN7N3 serves as a substrate for gonococcal Lst resulting in incorporation of KDN7N3 on gonococcal lacto-N-neotetraose (LNnT) LOS—Incorporation of KDN7N3 by gonococci. Gonococcal strain F62ΔlgtD (expresses lacto-N-neotetraose (LNnT) from Hepl) was grown in media containing CMP-KDN7N3 (20 μg/mL) and binding of mAb 3F11 was measured by flow cytometry. mAb 3F11 binds only to […] LNnT; substitution of the terminal Gal of LNnT, for example with a NulO, will decrease mAb 3F11 binding. Approximately 5×10^7 bacteria were incubated with mAb 3F11 tissue culture supernatants for 15 minutes at 37° C. Binding of mAb 3F11 was disclosed with anti-mouse IgM FITC (Sigma; dilution of 1:100). […]

N. gonorrhoeae F62 ΔlgtD [3] = details: from U.S. patent application Ser. No. 14/627,396; cited from earlier work
[4] = target: T1, gonococcal LOS sialyltransferase (Lst); details: from U.S. patent application Ser. No. 14/627,396; cited from earlier work
N. gonorrhoeae H041 = assay: BALB/c mouse vaginal colonization model; format: in vivo; details: 10 μg intravaginally daily; Premarin treated BALB/c mice
Procedure: FIG. 2: Female BALB/c mice 5-6 weeks of age (Jackson Laboratories) in the diestrus phase of the estrous cycle were started on treatment (that day) with 0.5 mg of Premarin (Pfizer) given subcutaneously on each of three days; −2, 0 and +2 days (before, the day of and after inoculation) to prolong the estrus phase of the cycle and promote susceptibility to N. gonorrhoeae infection. Antibiotics (vancomycin, colistin, neomycin, trimethoprim and streptomycin) that were ineffective against N. gonorrhoeae were also used to reduce competitive microflora. Mice (n=40) were then infected with 10^6 CFU of strain H041. Three groups of mice (n=10/group) were treated with 10 μg intravaginally daily (first dose was administered 30 minutes before the introduction of bacteria) with one of the following CMP-NulOs in normal saline: CMP-Leg5Ac7Ac, CMP-Neu5Ac9Az or CMP-KDN. A fourth group (n=10) was given saline (vehicle control). Vaginal swabs were obtained daily from each animal, serially diluted and plated on chocolate agar containing vancomycin, colistin, neomycin, trimethoprim and streptomycin (VCNTS) to quantify bacterial loads. A. Median time to clearance was estimated using Kaplan-Meier survival curves; the times to clearance were compared between groups using a log-rank test. P<0.0001 for the control versus each of the treatment groups. Time to clearance between each of the treatment groups was similar (P>0.05). B. The mean area under the curve (log10 CFU vs. time) was computed for each mouse to estimate the bacterial burden over time (cumulative infection); the means under the curves were compared between groups using the Kruskal-Wallis nonparametric rank sum test because distributions were skewed or kurtotic. Groups were compared using Dunn's multiple comparison test. ****, P<0.0001; **, P<0.01; *, P<0.05. The differences among the groups that received CMP-NulOs were not significant.
The mouse model experiments and statistical analysis were conducted as described in the art and in U.S. Pat. No. 9,765,106. […]

purified human FH = details: from U.S. Pat. No. 9,765,106 / Ser. No. 14/627,396; cited from earlier work

| SMILES | serum sensitivity (in words) (N. gonorrhoeae F62 ΔlgtD [1]; CMP-NulO alone, 10% serum) | % survival in 3.3% serum (N. gonorrhoeae F62 ΔlgtD [1]; CMP-NulO 20 μg/mL) | % survival in 10% serum (N. gonorrhoeae F62 ΔlgtD [1]; CMP-NulO 20 μg/mL, 10% serum) | % survival in 3.3% serum (N. gonorrhoeae F62 ΔlgtD [1]; CMP-NulO 100 μg/mL) | % survival in 10% serum (N. gonorrhoeae F62 ΔlgtD [1]; CMP-NulO 100 μg/mL, 10% serum) | binding of mAb 3F11 (use as substrate by gonococcal Lst) [2] | serum resistance / serum-mediated killing (earlier results) (N. gonorrhoeae F62 ΔlgtD [3]) | substrate for gonococcal LOS sialyltransferase (Lst) (earlier results) [4] | attenuation of N. gonorrhoeae H041 infection (N. gonorrhoeae H041) | fH binding to bacteria (earlier results) (purified human FH) |
| --- | --- | --- | --- | --- | --- | --- | --- | --- | --- | --- |
| [N-]=[N+]=N[C@@H](C1O[C@](OP(=O)(O)OC[C@H]2O[C@@H](n3ccc(N)nc3=O)C(O)C2O)(C(=O)O)CC(O)[C@H]1O)[C@H](O)CO (stereo partly drawn) [CMP-KDN7N3, cytidine 5′-monophospho-3,7-dideoxy-7-azido-D-glycero-D-galacto-nonulosonic acid] | resulted in serum sensitivity | 125.60% | 33.92% | 123.67% | 22.52% | could be utilized by gonococcal LOS sialyltransferase (Lst) | – | – | – | – |
| CC(=O)NC1C(O)CC(OP(=O)(O)OCC2OC(n3ccc(N)nc3=O)C(O)C2O)(C(=O)O)OC1C(O)C(O)COC(C)=O (stereo not drawn) [CMP-Neu5Ac9Ac] | – | – | – | – | – | – | enhanced serum-mediated killing | can serve as substrates for gonococcal LOS sialyltransferase (Lst) | – | – |
| CC(=O)N[C@H]1[C@H]([C@H](O)[C@H](O)CN=[N+]=[N-])OC(OP(=O)(O)OC[C@H]2O[C@@H](n3ccc(N)nc3=O)[C@H](O)[C@@H]2O)(C(=O)O)C[C@@H]1O (stereo partly drawn) [CMP-Neu5Ac9Az] | – | – | – | – | – | – | enhanced serum-mediated killing | can serve as substrates for gonococcal LOS sialyltransferase (Lst) | significantly attenuated | not enhance fH binding above levels seen with an unsialylated F62 ΔlgtD control |
| CO[C@H](CO)[C@@H](O)[C@@H]1O[C@@](OP(=O)(O)OC[C@H]2O[C@@H](n3ccc(N)nc3=O)[C@H](O)[C@@H]2O)(C(=O)O)C[C@H](O)[C@H]1NC(=O)CO [CMP-Neu5Gc8Me] | – | – | – | – | – | – | enhanced serum-mediated killing | can serve as substrates for gonococcal LOS sialyltransferase (Lst) | – | not enhance fH binding above levels seen with an unsialylated F62 ΔlgtD control |
| Nc1ccn([C@@H]2O[C@H](COP(=O)(O)O[C@@]3(C(=O)O)C[C@H](O)[C@@H](NC(=O)CO)[C@H]([C@H](O)[C@H](O)CO)O3)[C@@H](O)[C@H]2O)c(=O)n1 [CMP-Neu5Gc] | – | – | – | – | – | – | able to simulate the high-level serum resistance reported for CMP-Neu5Ac | can serve as substrates for gonococcal LOS sialyltransferase (Lst) | – | high level of fH binding to bacteria |
